The text below walks through data of patent publication US6063814A, “Phorbol esters as anti-neoplastic and white blood cell elevating agents” (priority 1997, dated 2000).

The test system of this assay is HL-60 cells. Kind of assay: TPA + low doses of Ara-C, HL-60 differentiation. It counts as cell-based, human. Particulars: Ara-C alone, low dose 100 ng/ml. From the text: (2) TPA+Low Doses of Ara-C:

Turning to `Nc1ccn([C@@H]2O[C@H](CO)[C@@H](O)[C@@H]2O)c(=O)n1` [Ara-C, cytarabine, reference compound], the HL-60 cell differentiation result was “could induce cell differentiation”.
